Results taken from patent publication US20250212873A1, “VOLATILE HDAC INHIBITORS FOR THERAPEUTIC AND PLANT APPLICATIONS” (The Regents of the University of California, priority 2022, published 2025).

Experiments:
[1] = test system: A. thaliana plants (Col-0); experiment: Flowering assay; format: in vivo, Arabidopsis thaliana; conditions: vapors from 0.1% solution
Description: Dramatic effects of VOCs have been seen in the seedling stage. The effects on with flowering timing were observed, since the process involves numerous changes in gene expression and therefore potentially susceptible to HDAC inhibitory volatiles. Mutants in HDACs like HDA5 show delayed flowering due to upregulation of flowering repressor genes like FLC and MAF1 (M. Luo et al., Plant J 82, 925-936 (2015)). Conversely, mutants in HDA9lead to early flowering due to increased expression of FLOWERING LOCUS T (FT) and AGAMOUS-LIKE 19 (AGL19) (M. J. Kang, et al., New Phytol 206, 281-294 (2015)). We placed 3 weeks old A. thaliana plants in the glass chambers and exposed them to the vapors of two of the VOCs, diacetyl and α-angelica lactone volatilizing from 0.1% solutions in the glass chamber.
Twenty-seven day old A. thaliana plants (Col-0), that had been transplanted at day 7 to soil, were placed in 10-gallon glass aquarium as chamber along with a petridish containing 2 ml of chemical dissolved in PO or PO alone were placed at the other side of the container. Plants were exposed to odors until all plants began to flower, with odor cartridges being replaced daily. Signs of flower buds opening were counted as plant flowering. One-way analysis of Variance (ANOVA) between groups was performed for plant exposure quantitative data using Graph Pad Prism 9.

[2] = test system: Arabidopsis thaliana roots; experiment: RNA-Seq of roots of diacetyl vapor exposed Arabidopsis seedlings; format: in vivo
Description: In order to understand the molecular changes occurring with the volatile exposure and possibly underlying this developmental phenotype, an RNA-Seq analysis of the roots in diacetyl exposed vs control was performed. A large number of differentially expressed genes (DEGs) was found in the roots of the diacetyl vapor exposed Arabidopsis. 5197 differentially expressed genes (DEGs) (false discovery rate, FDR<0.05) were identified in the root transcriptome of diacetyl-exposed seedlings compared to control.
A. thaliana plants (Col-0) were grown in an Agar medium were synchronized to germinate using pre-treatment in cold. Exposure experiments were started using plants the plates when they were 11 days old and placed in a 10-gallon glass aquarium as a chamber along with a petri dish containing 1 ml of chemical dissolved in PO or PO alone were placed at the other side of the container. After the desired exposure, the roots were separated, and a Trizol-based RNA isolation was carried out as above. Two biological replicates were performed for each condition, with an average of 68,355,820 reads/replicate, with an average of 95% mapped. Multiplexed libraries were made from total RNA input using the Illumina TruSeq RNA sample preparation kit (v2) and 50 bps single-end sequencing was done using the NextSeq500.

mouse brain = experiment: Brain RNA-seq of mice exposed to diacetyl vapors; format: in vivo; conditions: 5 days
Description: HDAC inhibitors are an important class of drugs being tested for a number of different conditions including neurodegenerative diseases and brain cancers. A major design challenge for such drugs is the ability to cross the blood-brain barrier. An interesting possibility that arises due to the volatility and small size of odorants is that they could diffuse through the intranasal route to the brain directly. To test whether cells in the brain respond to diacetyl vapors by altering gene expression RNA-seq experiments were carried out on mice exposed only to aroma of diacetyl for 5 days. Littermate controls were exposed in a similar manner to the solvent (PO) headspace.
The DEGs from the diacetyl-exposed mouse brain transcriptome for several of these key genes were evaluated.

[3] = test system: Arabidopsis thaliana leaflets; experiment: RNA-seq of leaflets of Arabidopsis exposed to diacetyl; format: in vivo
Description: A. thaliana plants (Col-0) that had been transplanted at day 7 to soil were placed in the experimental room for 2 days to acclimate (23°° C. with a 12-hour light/dark cycle). A single potted plant was placed in a 4-liter clear glass jar, with openings attached to a vacuum to allow for air exchange. A small beaker containing 1 ml of 1% diacetyl in PO or PO alone were placed inside the jar. Plants were watered at 2.5 days. After 5 days, individual leaflets were dissected, and flash frozen in liquid nitrogen. Trizol-based RNA isolation was carried out as above. Two biological replicates were performed for each condition, with an average of 68,355,820 reads/replicate, with an average of 95% mapped. Multiplexed libraries were made from total RNA input using the Illumina TruSeq RNA sample preparation kit (v2) and 50 bps single-end sequencing was done using the NextSeq500.
The HDACs are also important for gene expression in the shoots as well. Young plants in pots were exposed to vapors of diacetyl from a solution of the same concentration as before and performed an RNASeq analyses. 321 genes were differentially regulated in the leaflet of Arabidopsis thaliana following exposure to volatile diacetyl for 5 days (FDR<0.05). These DEGs are distributed across multiple chromosome locations and represent genes of diverse molecular functions (FIG. 27C). […]

[4] = 0.1% headspace, |log2 fold-change|>1, FDR<0.05
[5] = 1% headspace, |log2 fold-change|>1, FDR<0.01

`CC(=O)C(C)=O` [2,3-butanedione] was tested, and the delay in flowering [1] was 11 days, the “differentially expressed genes (DEGs) in the root transcriptome” value ([2]; 1% (v/v) headspace, 7 days, FDR<0.05) was 5197 genes and the “significantly down-regulated genes in roots” value ([2]; log2 fold-change<-1, FDR<0.05) was 2572 genes. For the same compound, the “significantly up-regulated genes in roots” value ([2]; log2 fold-change>1, FDR<0.05) was 2625 genes, the “down regulated genes in mouse brain” value (mouse brain; [4]) was 32 genes and the “up-regulated genes in mouse brain” value (mouse brain; [4]) was 49 genes. The “down regulated genes in mouse brain” value (mouse brain; [5]) was 1031 genes, the “up-regulated genes in mouse brain” value (mouse brain; [5]) was 748 genes and the “Alk expression in mouse brain” value (mouse brain; exposed mice of FIG. 22B (1%)) was “significantly downregulated”. For the same compound, the “ERCC6L2 expression in mouse brain” value (mouse brain; exposed mice of FIG. 22B (1%)) was “significantly downregulated”, the “MycN expression in mouse brain” value (mouse brain; exposed mice of FIG. 22B (1%)) was “significantly downregulated” and the “NCAN expression in mouse brain” value (mouse brain; exposed mice of FIG. 22B (1%)) was “significantly downregulated”. For the same compound, the “STK33 expression in mouse brain” value (mouse brain; exposed mice of FIG. 22B (1%)) was “significantly downregulated”, the “gene expression in the mouse brain (RNA-seq), in words” value (mouse brain; inhaled vapors, 0.1% or 1% solution headspace) was “changes in expression of a number of genes, in a dose dependent manner” and the “gene expression in leaflets (RNA-seq)” value ([3]; volatile exposure) was “significant changes in gene expression”. The “genes differentially regulated in the leaflet” value ([3]; volatile exposure 5 days, 1% in PO, FDR<0.05) was 321 genes.
